In ChEMBL document CHEMBL1201862, “PubChem BioAssay data set” (2004):
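Method: 48-hour compound exposure of cells in 96-well plates, five concentrations, linear interpolation of endpoints. GI50 = concentration required for 50% inhibition of growth.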 Active and inactive are the calls of the source. Rule as the data show it: active = GI50 up to about 1.1 µM and inactive = higher.

Tests used:
Experiment in all cases: NCI-60 cell line screen, 48 h
[1] = tested on: NCI-H460
[2] = tested on: SW-620
[3] = tested on: HCT-116
[4] = tested on: OVCAR-3
[5] = tested on: MCF7
[6] = tested on: UACC-257
[7] = tested on: IGROV-1
[8] = tested on: MOLT-4
[9] = tested on: OVCAR-5
[10] = tested on: 786-0
[11] = tested on: OVCAR-8
[12] = tested on: SNB-75
[13] = tested on: U-251
[14] = tested on: NCI-H23
[15] = tested on: NCI/ADR-RES
[16] = tested on: ACHN
[17] = tested on: SK-MEL-2
[18] = tested on: CAKI-1
[19] = tested on: Malme-3M
[20] = tested on: NCI-H522

Measured: GI50

CCCC1C2=C(C(=O)OC2=O)C2C(CC)CC3=C(C(=O)OC3=O)C12 (stereo not given)
inactive: [1] > 100 µM | [2] > 100 µM | [3] > 100 µM | [4] > 100 µM | [5] > 100 µM | [6] > 100 µM | [7] > 100 µM | [8] > 100 µM | [9] > 100 µM | [10] > 100 µM | [11] > 100 µM | [12] > 100 µM | [13] > 100 µM | [14] > 100 µM | [15] > 100 µM | [16] > 100 µM | [17] > 100 µM | [18] > 100 µM

Cc1cc2c(cc1-c1cc3c(cc1C)C(C(C)C)=C(O)C(=O)/C3=C\Nc1nc(-c3ccccc3)cs1)/C(=C/Nc1nc(-c3ccccc3)cs1)C(=O)C(O)=C2C(C)C
inactive: [1] 18.2 µM | [2] 15.6 µM | [3] 8.61 µM | [4] 15.3 µM | [5] 18.1 µM | [6] 21.8 µM | [7] 16.8 µM | [8] 35.7 µM | [9] > 10 µM | [10] 21.8 µM | [11] 25.6 µM | [12] 35.4 µM | [13] 14.4 µM | [14] 15.5 µM | [15] 26.1 µM | [19] 33.8 µM | [16] 14.9 µM | [17] 21 µM | [18] 35.7 µM

CCOC(=O)c1cc(C2CCN(Cc3ccccc3)C2=O)c(C(=O)C(=[N+]=[N-])C(C)=O)[nH]1 (stereo not given)
inactive: [1] > 100 µM | [2] > 100 µM | [3] > 100 µM | [4] > 100 µM | [5] > 100 µM | [6] > 100 µM | [7] > 100 µM | [8] > 100 µM | [9] > 100 µM | [10] > 100 µM | [11] > 100 µM | [12] > 100 µM | [13] > 100 µM | [14] > 100 µM | [15] > 100 µM | [19] > 100 µM | [17] > 100 µM | [18] > 100 µM

O=C1c2ccccc2C(=O)c2sc(Nc3ccccc3C(F)(F)F)nc21
inactive: [1] 21.8 µM | [2] 6.1 µM | [3] 28.6 µM | [4] 7.33 µM | [5] 16.4 µM | [6] 15.6 µM | [7] 12.5 µM | [8] 3.45 µM | [9] 22.4 µM | [10] 16.4 µM | [12] 15.1 µM | [13] 10.6 µM | [14] 15.7 µM | [20] 8.15 µM | [19] 12.4 µM | [16] 16.6 µM | [17] 11.6 µM | [18] 8.77 µM

Cc1cc(-c2nc3c(F)cccc3s2)ccc1N
inactive: [2] > 100 µM | [3] 85.1 µM | [4] > 100 µM | [6] 82.6 µM | [8] 10.7 µM | [10] 92.5 µM | [11] > 100 µM | [12] 52.1 µM | [13] 69.2 µM | [14] 32.8 µM | [15] > 100 µM | [20] 11.3 µM | [19] 28.8 µM | [16] 30 µM | [17] > 100 µM | [18] 50.4 µM

CC1(C)OC2OC(C(COS(=O)(=O)C(F)(F)F)N=[N+]=[N-])C(OC(=O)c3ccccc3)C2O1 (stereo not given)
inactive: [1] > 100 µM | [2] > 100 µM | [3] > 100 µM | [4] > 100 µM | [5] > 100 µM | [6] > 100 µM | [8] > 100 µM | [9] > 100 µM | [10] > 100 µM | [11] > 100 µM | [12] 53.1 µM | [13] > 100 µM | [14] > 100 µM | [15] > 100 µM | [19] > 100 µM | [16] > 100 µM | [17] > 100 µM | [18] > 100 µM

N#Cc1c(NCCc2ccc(F)cc2)c2ccccc2n2c1nc1ccccc12
inactive: [1] 16.5 µM | [2] 75 µM | [3] 19 µM | [4] 13.9 µM | [5] 6.34 µM | [6] 40.4 µM | [7] 13.4 µM | [8] > 100 µM | [9] 41.6 µM | [10] 4.46 µM | [11] 5.68 µM | [12] 6.32 µM | [13] 11.3 µM | [14] 13.1 µM | [15] 12.3 µM | [16] 9.18 µM | [17] 36.9 µM | [18] 9.84 µM

CCCCCCCC(CC(=O)NC(CO)C(=O)NC(CO)CC(C)C)OC(=O)CC(CCCCCCC)OC(=O)CC(CCCCCCC)OC1OC(C)C(O)C(OC2OC(C)C(OC(C)=O)C(O)C2O)C1O (stereo not given)
inactive: [1] 3.97 µM | [2] 10.7 µM | [3] 4.84 µM | [4] 11.8 µM | [5] 11.1 µM | [6] 2.22 µM | [7] 10.7 µM | [8] 2.38 µM | [9] 10.1 µM | [10] 5.6 µM | [11] 9.27 µM | [12] 4.59 µM | [13] 4.41 µM | [14] 9.53 µM | [20] 11.7 µM | [19] 10.6 µM | [16] 15.7 µM | [18] 15.2 µM

NCCCN(CCCCN(CCCN)Cc1ccc2ccccc2c1)Cc1ccc2ccccc2c1
inactive: [1] 1.55 µM | [2] 2.43 µM | [3] 2.54 µM | [5] 2.09 µM | [6] 2.02 µM | [7] 1.82 µM | [8] 2.01 µM | [9] 1.84 µM | [10] 1.62 µM | [11] 1.82 µM | [12] 1.5 µM | [13] 1.8 µM | [14] 1.85 µM | [15] 18.7 µM | [19] 1.76 µM | [16] 1.9 µM | [18] 1.65 µM

COC(=O)C1=C(O)CCCC(C2CCCCC(=O)C2C(=O)OC)=C1 (stereo not given)
inactive: [1] 13.9 µM | [2] 81.8 µM | [3] 36.1 µM | [4] > 100 µM | [5] 22.6 µM | [6] 52.1 µM | [7] 36.8 µM | [8] 31.3 µM | [9] > 100 µM | [10] 37.8 µM | [11] 45.5 µM | [12] 28.7 µM | [13] 29 µM | [14] 70.3 µM | [15] > 100 µM | [16] 37.2 µM | [17] > 100 µM | [18] 31.1 µM

CC1(C)C(=S)C(C)(C)C1=S
inactive: [1] > 100 µM | [2] > 100 µM | [3] > 100 µM | [4] > 100 µM | [5] > 100 µM | [6] > 100 µM | [7] > 100 µM | [8] > 100 µM | [9] > 100 µM | [10] > 100 µM | [12] > 100 µM | [13] > 100 µM | [14] > 100 µM | [15] > 100 µM | [19] > 100 µM | [16] > 100 µM | [17] > 100 µM
